# Experimental data taken from ChEMBL document CHEMBL1158138, “Cucurbitane triterpenes from the fruiting bodies and cultivated mycelia of Leucopaxillus gentianeus” (J Nat Prod, 2006).
# Calls of active or inactive are those of the source. The calls are words filed in the database; no cut-off is given here.
# Tested on: NCI-H460
# Assay: Antiproliferative activity against human NCI-H460 cells after 72 hrs
# Format: functional, cell-based
# Conditions: NCI-H460, 72 h
row,SMILES,IC50
1,CC(=O)OC(C)(C)/C=C/C(=O)[C@@](C)(O)[C@H]1CC[C@@]2(C)[C@@H]3CC=C4[C@@H](C[C@H](O)C(=O)C4(C)C)[C@]3(C)C(=O)C[C@]12C [16-DEOXYCUCURBITACIN B],0.06 µg/mL
2,CC(=O)O[C@H](C[C@@H](OC(C)=O)C(C)(C)O)[C@@H](C)[C@H]1[C@H](O)C[C@@]2(C)[C@@H]3CC=C4[C@@H](CCC(=O)C4(C)C)[C@]3(C)C(=O)C[C@]12C [18-DEOXYLEUCOPAXILLONE A],10.6 µg/mL
3,CC(=O)OC(C)(C)/C=C/C(=O)[C@](C)(O)[C@H]1[C@H](O)C[C@@]2(C)[C@@H]3CC=C4[C@H](C[C@H](O)C(=O)C4(C)C)[C@]3(C)C(=O)C[C@]12C [CUCURBITACIN B],0.011 µg/mL
4,CC(C)(O)/C=C/C(=O)[C@](C)(O)[C@H]1[C@H](O)C[C@@]2(C)[C@@H]3CC=C4[C@@H](C[C@H](O)C(=O)C4(C)C)[C@]3(C)C(=O)C[C@]12C [CUCURBITACIN D],0.12 µg/mL
5,CC(=O)O[C@H](C[C@@H](OC(C)=O)C(C)(C)O)[C@@H](C)[C@H]1CC[C@@]2(C)[C@@H]3CC=C4[C@@H](CCC(=O)C4(C)C)[C@]3(C)CC[C@]12CO [LEUCOPAXILLONE A],3.5 µg/mL
6,CC(=O)O[C@H](C[C@@H](OC(C)=O)C(C)(C)O)[C@@H](C)[C@H]1CC[C@@]2(C)[C@@H]3CC=C4[C@@H](CCC(=O)C4(C)C)[C@]3(C)[C@]3(O)C[C@]12CO3 [LEUCOPAXILLONE B],0.3 µg/mL
7,CC[C@@]1(O)C(=O)OCc2c1cc1n(c2=O)Cc2cc3c(CN(C)C)c(O)ccc3nc2-1 [TOPOTECAN],0.008 µg/mL

# Molecular target: T1, DNA topoisomerase 1 (Homo sapiens) (UniProt P11387)
# T1 sequence (whole entry): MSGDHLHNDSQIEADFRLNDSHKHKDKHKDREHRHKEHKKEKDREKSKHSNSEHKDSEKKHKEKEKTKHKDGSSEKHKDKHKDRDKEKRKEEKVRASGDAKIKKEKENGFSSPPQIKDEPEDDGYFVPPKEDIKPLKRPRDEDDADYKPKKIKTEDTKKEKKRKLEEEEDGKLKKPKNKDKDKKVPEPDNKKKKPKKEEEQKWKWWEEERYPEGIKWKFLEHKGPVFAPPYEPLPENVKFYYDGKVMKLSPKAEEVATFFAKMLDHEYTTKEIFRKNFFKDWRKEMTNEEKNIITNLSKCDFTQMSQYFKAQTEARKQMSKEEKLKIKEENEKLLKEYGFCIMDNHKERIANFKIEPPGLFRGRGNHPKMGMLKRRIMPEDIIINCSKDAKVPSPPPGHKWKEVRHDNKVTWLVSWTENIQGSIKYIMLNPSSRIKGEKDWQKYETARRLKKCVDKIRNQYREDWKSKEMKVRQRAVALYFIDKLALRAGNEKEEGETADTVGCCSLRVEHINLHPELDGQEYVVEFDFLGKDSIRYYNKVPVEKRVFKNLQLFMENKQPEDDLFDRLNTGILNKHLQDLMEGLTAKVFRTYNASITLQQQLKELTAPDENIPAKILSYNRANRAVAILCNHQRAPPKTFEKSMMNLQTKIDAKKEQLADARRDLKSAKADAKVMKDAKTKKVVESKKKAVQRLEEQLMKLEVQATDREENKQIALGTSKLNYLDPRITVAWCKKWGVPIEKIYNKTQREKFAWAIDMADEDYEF
# Assay: Inhibition of topoisomerase 1-mediated SV40 DNA cleavage at 1 to 50 uM by gel electrophoresis
# Conditions: not given
row,SMILES,Activity
1,CCc1c2c(nc3ccc(O)cc13)-c1cc3c(c(=O)n1C2)COC(=O)[C@]3(O)CC,Active
2,CC(=O)OC(C)(C)/C=C/C(=O)[C@](C)(O)[C@H]1[C@H](O)C[C@@]2(C)[C@@H]3CC=C4[C@H](C[C@H](O)C(=O)C4(C)C)[C@]3(C)C(=O)C[C@]12C [CUCURBITACIN B],Active
